{"source": "patent US20080206770A1", "about": "“SCREENING METHODS USED TO IDENTIFY COMPOUNDS THAT MODULATE SKIN STROMAL CELLS (FIBROBLASTS) ABILITY TO MODIFY FUNCTION OF EXTRACELLULAR MATRIX” (priority 2007, published 2008)", "key": {"[1]": {"tested_on": "dermal fibroblasts isolated from 17 individuals", "experiment": "Real time RT-PCR of ECM components, nuclear hormone receptors and coregulators in fibroblasts from 17 individuals", "assay_type": "cell-based, human", "details": "24 hours", "procedure": "Total RNA was extracted from cells using RNA aqueous kit (Ambion, USA). First-strand cDNAs were synthesized with Superscript III reverse transcriptase (Invitrogen, USA) and 1 μg of total RNA using oligo d(T) priming in a final reaction volume of 40 μL.\nLevels of specific mRNAs were measured by real-time RT-PCR using Platinum SYBR Green qPCR SuperMix UDG (Invitrogen) according the protocol on the LightCycler 2.0 (Roche, US). The cycling program steps were: for one cycle 50° C. 2 min, for one cycle 95° C. 2 min and for 45 cycles: 95° C. 10 s, 60° C. 10 s, 72° C. 10 s. All samples were run in triplicates. Results were analyzed with the comparative Ct method (from Applied Biosystems manual; Livak and Schmittgen, 2001). Every sample was normalized for the housekeeping gene GAPDH. Transcript levels in the atRA and TGFb1 treated samples were compared to control samples."}, "[2]": {"tested_on": "skin fibroblasts from 30 individuals", "experiment": "Combined score of expression stimulation of 5 genes in fibroblast isolates (FIG. 1)", "assay_type": "cell-based, human", "details": "24 hour treatment, atRA 10^-7 M, Matrixyl 1 μM, KappaElastin 1 μM", "procedure": "Human dermal fibroblasts were grown in DMEM cell culture media containing 10% fetal bovine serum and 1% penicillin/streptomycin (Invitrogen). For all experiments, third-passage fibroblasts were used one day after reaching confluence. […] After 24 hour treatment RNA and protein was isolated and analyzed for the expression of components of ECM and transcriptional regulators.\nTotal RNA from various human tissues was purified using RNAwiz (Ambion, USA) and subjected to subsequent DNase I treatment using the DNA-Free kit (Ambion). Total RNA from cancer cells was purified by using 4PCRmini kit (Ambion). First-strand cDNAs were synthesized with Superscript III reverse transcriptase (Invitrogen, USA) and 5 μg of total RNA using oligo d(T) priming in a final reaction volume of 50 μL\nThe cDNA was amplified by PCR using the 2.5 U Hot-Firepol (Solis BioDyne, Estonia) and buffer Yellow (Naxo, Estonia). Reaction was performed in a 10 ul volume, using 0.5 ul cDNA as a template. Following primer sets were designed for this study:\nThe combined score of expression stimulation of 5 genes was calculated and blotted for each fibroblast isolate. […] This biological variation provides a good biological rational to use molecular diagnostics for matching cosmetics product and skin cells of specific individual (personalized cosmetics)."}, "[3]": {"details": "fibroblasts from 17 individuals, 10 ng/ml"}}, "data": [{"substance": "TGFbeta1: well-characterized profibrotic factor", "values": [{"measurement": "expression of metalloproteinases and PPARγ", "setting": "[1]; 10 ng/ml, 17 individuals", "value": "suppresses significantly"}, {"measurement": "gene expression of majority of collagens", "setting": "[1]; 10 ng/ml, 17 individuals", "value": "strongly upregulated"}, {"measurement": "individual variation of collagen gene expression between individual fibroblasts", "setting": "[1]; 10 ng/ml, 17 individuals", "value": "up to 13 fold"}, {"measurement": "variation of expression of PPARγ between different individuals", "setting": "[1]; 10 ng/ml, 17 individuals", "value": "up to 17 fold"}, {"measurement": "effect on gene expression of different ECM genes compared with atRA", "setting": "[1]; TGFβ1 10 ng/ml vs atRA 1 μM", "value": "noticeably stronger"}, {"measurement": "CBP expression in TGFbeta1 treatment compared to control, from-to between individuals", "setting": "[1]; [3]", "value": "(from −2.24 to 2.29) fold"}, {"measurement": "COL1A1 expression in TGFbeta1 treatment compared to control, from-to between individuals", "setting": "[1]; [3]", "value": "(from −1.11 to 7.75) fold"}, {"measurement": "COL1A2 expression in TGFbeta1 treatment compared to control, from-to between individuals", "setting": "[1]; [3]", "value": "(from 1.14 to 9.58) fold"}, {"measurement": "COL3A1 expression in TGFbeta1 treatment compared to control, from-to between individuals", "setting": "[1]; [3]", "value": "(from −1.75 to 6.82) fold"}, {"measurement": "COL4A1 expression in TGFbeta1 treatment compared to control, from-to between individuals", "setting": "[1]; [3]", "value": "(from 2.52 to 16.22) fold"}, {"measurement": "COL5A1 expression in TGFbeta1 treatment compared to control, from-to between individuals", "setting": "[1]; [3]", "value": "(from −1.61 to 6.08) fold"}, {"measurement": "COL5A2 expression in TGFbeta1 treatment compared to control, from-to between individuals", "setting": "[1]; [3]", "value": "(from 1.3 to 3.42) fold"}, {"measurement": "CTGF expression in TGFbeta1 treatment compared to control, from-to between individuals", "setting": "[1]; [3]", "value": "(from −1.8 to 11.00) fold"}, {"measurement": "ELN expression in TGFbeta1 treatment compared to control, from-to between individuals", "setting": "[1]; [3]", "value": "(from −3.33 to 10.63) fold"}, {"measurement": "FN 1 transcr.v.1 expression in TGFbeta1 treatment compared to control, from-to between individuals", "setting": "[1]; [3]", "value": "(from −3.23 to 3.75) fold"}, {"measurement": "Individual variation of gene expression in TGFbeta1 treatment: CBP", "setting": "[1]; [3]", "value": 4.53, "unit": "fold"}, {"measurement": "Individual variation of gene expression in TGFbeta1 treatment: COL1A1", "setting": "[1]; [3]", "value": 8.86, "unit": "fold"}, {"measurement": "Individual variation of gene expression in TGFbeta1 treatment: COL1A2", "setting": "[1]; [3]", "value": 8.44, "unit": "fold"}, {"measurement": "Individual variation of gene expression in TGFbeta1 treatment: COL3A1", "setting": "[1]; [3]", "value": 8.57, "unit": "fold"}, {"measurement": "Individual variation of gene expression in TGFbeta1 treatment: COL4A1", "setting": "[1]; [3]", "value": 13.7, "unit": "fold"}, {"measurement": "Individual variation of gene expression in TGFbeta1 treatment: COL5A1", "setting": "[1]; [3]", "value": 7.69, "unit": "fold"}, {"measurement": "Individual variation of gene expression in TGFbeta1 treatment: COL5A2", "setting": "[1]; [3]", "value": 2.12, "unit": "fold"}, {"measurement": "Individual variation of gene expression in TGFbeta1 treatment: CTGF", "setting": "[1]; [3]", "value": 12.8, "unit": "fold"}, {"measurement": "Individual variation of gene expression in TGFbeta1 treatment: ELN", "setting": "[1]; [3]", "value": 13.96, "unit": "fold"}, {"measurement": "Individual variation of gene expression in TGFbeta1 treatment: FN 1 transcr.v.1", "setting": "[1]; [3]", "value": 6.98, "unit": "fold"}, {"measurement": "Individual variation of gene expression in TGFbeta1 treatment: MMP1, collagenase 1", "setting": "[1]; [3]", "value": 7.02, "unit": "fold"}, {"measurement": "Individual variation of gene expression in TGFbeta1 treatment: MMP2 gelatinase", "setting": "[1]; [3]", "value": 4.77, "unit": "fold"}, {"measurement": "Individual variation of gene expression in TGFbeta1 treatment: MMP3 stromelysin", "setting": "[1]; [3]", "value": 5.8, "unit": "fold"}, {"measurement": "Individual variation of gene expression in TGFbeta1 treatment: MMP7", "setting": "[1]; [3]", "value": 32.8, "unit": "fold"}, {"measurement": "Individual variation of gene expression in TGFbeta1 treatment: MMP10, stromelysin 2", "setting": "[1]; [3]", "value": 45.93, "unit": "fold"}, {"measurement": "Individual variation of gene expression in TGFbeta1 treatment: NCOA1", "setting": "[1]; [3]", "value": 5.64, "unit": "fold"}, {"measurement": "Individual variation of gene expression in TGFbeta1 treatment: NCOA2", "setting": "[1]; [3]", "value": 1.58, "unit": "fold"}, {"measurement": "Individual variation of gene expression in TGFbeta1 treatment: NCOA3", "setting": "[1]; [3]", "value": 6.21, "unit": "fold"}, {"measurement": "Individual variation of gene expression in TGFbeta1 treatment: NCOA5", "setting": "[1]; [3]", "value": 4.56, "unit": "fold"}, {"measurement": "Individual variation of gene expression in TGFbeta1 treatment: NCOA6", "setting": "[1]; [3]", "value": 2.82, "unit": "fold"}, {"measurement": "Individual variation of gene expression in TGFbeta1 treatment: NCOR1", "setting": "[1]; [3]", "value": 7.31, "unit": "fold"}, {"measurement": "Individual variation of gene expression in TGFbeta1 treatment: PPARG", "setting": "[1]; [3]", "value": 17.71, "unit": "fold"}, {"measurement": "Individual variation of gene expression in TGFbeta1 treatment: TIMP1", "setting": "[1]; [3]", "value": 5.73, "unit": "fold"}, {"measurement": "MMP1, collagenase 1 expression in TGFbeta1 treatment compared to control, from-to between individuals", "setting": "[1]; [3]", "value": "(from −5.05 to 1.97) fold"}, {"measurement": "MMP2 gelatinase expression in TGFbeta1 treatment compared to control, from-to between individuals", "setting": "[1]; [3]", "value": "(from −2.51 to 2.26) fold"}, {"measurement": "MMP3 stromelysin expression in TGFbeta1 treatment compared to control, from-to between individuals", "setting": "[1]; [3]", "value": "(from −3.22 to 2.58) fold"}, {"measurement": "MMP7 expression in TGFbeta1 treatment compared to control, from-to between individuals", "setting": "[1]; [3]", "value": "(from −29.96 to 2.84) fold"}, {"measurement": "MMP10, stromelysin 2 expression in TGFbeta1 treatment compared to control, from-to between individuals", "setting": "[1]; [3]", "value": "(from −5.0 to 40.93) fold"}, {"measurement": "NCOA1 expression in TGFbeta1 treatment compared to control, from-to between individuals", "setting": "[1]; [3]", "value": "(from −2.76 to 2.88) fold"}, {"measurement": "NCOA2 expression in TGFbeta1 treatment compared to control, from-to between individuals", "setting": "[1]; [3]", "value": "(from −2.54 to −0.96) fold"}, {"measurement": "NCOA3 expression in TGFbeta1 treatment compared to control, from-to between individuals", "setting": "[1]; [3]", "value": "(from −4.81 to 1.4) fold"}, {"measurement": "NCOA5 expression in TGFbeta1 treatment compared to control, from-to between individuals", "setting": "[1]; [3]", "value": "(from −3.13 to 1.43) fold"}, {"measurement": "NCOA6 expression in TGFbeta1 treatment compared to control, from-to between individuals", "setting": "[1]; [3]", "value": "(from 1.64 to 1.18) fold"}, {"measurement": "NCOR1 expression in TGFbeta1 treatment compared to control, from-to between individuals", "setting": "[1]; [3]", "value": "(from −2.54 to 4.77) fold"}, {"measurement": "PPARG expression in TGFbeta1 treatment compared to control, from-to between individuals", "setting": "[1]; [3]", "value": "(from −16.51 to 1.2) fold"}, {"measurement": "TIMP1 expression in TGFbeta1 treatment compared to control, from-to between individuals", "setting": "[1]; [3]", "value": "(from −2.45 to 3.28) fold"}]}, {"substance": "palmitoys pentapeptide-3 [Matrixyl]", "values": [{"measurement": "combined score of expression stimulation of 5 genes (COL1A1, COL2A1, elastin, proteoglycan, TIMP1) per fibroblast isolate", "setting": "[2]", "value": "3 groups of fibroblasts that have different response"}]}]}
